Experimental data reported in patent US20120135995A1, “FUNGICIDAL DIPHENYL-SUBSTITUTED PYRIDAZINES” (E.I. Dupont de Nemours and Company, priority 2009, published 2012).

Assays:
Assay type in all cases: in vivo
Septoria tritici = assay: Test D: wheat seedlings sprayed, next day inoculated with Septoria tritici (wheat leaf blotch), visual disease rating; settings: sprayed day before inoculation; for Test D rating (disease control) / pest or weed control at 200 ppm: 200 ppm test suspension; for pest or weed control at 200 ppm / pest or weed control at 40 ppm: Zymoseptoria tritici; for pest or weed control at 40 ppm: 40 ppm test suspension (*)
Description: (§1) General protocol for preparing test suspensions for Tests A-F: the test compounds were first dissolved in acetone in an amount equal to 3% of the final volume and then suspended at the desired concentration (in ppm) in acetone and purified water (50/50 mix) containing 250 ppm of the surfactant Trem® 014 (polyhydric alcohol esters). The resulting test suspensions were then used in Tests A-F. Spraying a 200 ppm test suspension to the point of run-off on the test plants was the equivalent of a rate of 500 g/ha. An asterisk “*” next to the rating value indicates a 40 ppm test suspension.
(§2) The test suspension was sprayed to the point of run-off on wheat seedlings. The following day the seedlings were inoculated with a spore suspension of Septoria tritici (the causal agent of wheat leaf blotch) and incubated in saturated atmosphere at 24° C. for 48 h, and then moved to a growth chamber at 20° C. for 19 days, after which time visual disease ratings were made.
(§3) Results for Tests A-F are given in Table A. In the Table, a rating of 100 indicates 100% disease control and a rating of 0 indicates no disease control (relative to the controls). A dash (-) indicates no test results. All results are for 200 ppm except where followed by “*”, which indicates 40 ppm.

Erysiphe graminis = assay: Test F: wheat seedlings sprayed, next day inoculated with Erysiphe graminis (wheat powdery mildew), visual disease rating; settings: sprayed day before inoculation; for Test F rating (disease control) / pest or weed control at 200 ppm: 200 ppm test suspension; for pest or weed control at 200 ppm / pest or weed control at 40 ppm: Blumeria graminis; for pest or weed control at 40 ppm: 40 ppm test suspension (*)
Description: as §1
The test suspension was sprayed to the point of run-off on wheat seedlings. The following day the seedlings were inoculated with a spore dust of Erysiphe graminis, (the causal agent of wheat powdery mildew) and incubated in a growth chamber at 20° C. for 8 days, after which time visual disease ratings were made.
as §3

Botrytis cinerea = assay: Test A: tomato seedlings sprayed, next day inoculated with Botrytis cinerea (tomato Botrytis), visual disease rating; settings: sprayed day before inoculation; for Test A rating (disease control) / pest or weed control at 200 ppm: 200 ppm test suspension; for pest or weed control at 200 ppm / pest or weed control at 40 ppm: Botrytis cinerea; for pest or weed control at 40 ppm: 40 ppm test suspension (*)
Description: as §1
as §2, with “tomato” for “wheat”, “Botrytis cinerea” for “Septoria tritici”, “tomato Botrytis)” for “wheat leaf blotch)”, “20°” for “24°”, “24°” for “20°”, “3” for “19”
as §3

[1] = test system: Puccinia recondita f. sp. tritici; assay: Test E2: wheat seedlings sprayed, next day inoculated with Puccinia recondita f. sp. tritici (wheat leaf rust), visual disease rating; settings: sprayed day before inoculation; for Test E2 rating (disease control) / pest or weed control at 200 ppm: 200 ppm test suspension; for pest or weed control at 200 ppm / pest or weed control at 40 ppm: Puccinia recondita; for pest or weed control at 40 ppm: 40 ppm test suspension (*)
Description: as §1
The test suspension was sprayed to the point of run-off on wheat seedlings. The following day the seedlings were inoculated with a spore suspension of Puccinia recondita f. sp. tritici (the causal agent of wheat leaf rust) and incubated in a saturated atmosphere at 20° C. for 24 h, and then moved to a growth chamber at 20° C. for 7 days, after which time visual disease ratings were made.
as §3

Septoria nodorum = assay: Test C: wheat seedlings sprayed, next day inoculated with Septoria nodorum (wheat glume blotch), visual disease rating; settings: sprayed day before inoculation; for Test C rating (disease control) / pest or weed control at 200 ppm: 200 ppm test suspension; for pest or weed control at 200 ppm / pest or weed control at 40 ppm: Parastagonospora nodorum; for pest or weed control at 40 ppm: 40 ppm test suspension (*)
Description: as §1
The test suspension was sprayed to the point of run-off on wheat seedlings. The following day the seedlings were inoculated with a spore suspension of Septoria nodorum (the causal agent of wheat glume blotch) and incubated in a saturated atmosphere at 24° C. for 48 h, and then moved to a growth chamber at 20° C. for 6 days, after which time visual disease ratings were made.
as §3

Alternaria solani = assay: Test B: tomato seedlings sprayed, next day inoculated with Alternaria solani (tomato early blight), visual disease rating; settings: sprayed day before inoculation; for Test B rating (disease control) / pest or weed control at 200 ppm: 200 ppm test suspension; for pest or weed control at 200 ppm / pest or weed control at 40 ppm: Alternaria solani; for pest or weed control at 40 ppm: 40 ppm test suspension (*)
Description: as §1
The test suspension was sprayed to the point of run-off on tomato seedlings. The following day the seedlings were inoculated with a spore suspension of Alternaria solani (the causal agent of tomato early blight) and incubated in a saturated atmosphere at 27° C. for 48 h, and then moved to a growth chamber at 20° C. for 5 days, after which time visual disease ratings were made.
as §3

| Structure (SMILES) | Test D rating (disease control) (Septoria tritici) [%] | Test F rating (disease control) (Erysiphe graminis) [%] | Test A rating (disease control) (Botrytis cinerea) [%] | Test E2 rating (disease control) [1] [%] | Test C rating (disease control) (Septoria nodorum) [%] | Test B rating (disease control) (Alternaria solani) [%] | pest or weed control at 40 ppm (Septoria tritici) [%] | pest or weed control at 40 ppm (Erysiphe graminis) [%] | pest or weed control at 40 ppm (Botrytis cinerea) [%] | pest or weed control at 40 ppm [1] [%] | pest or weed control at 40 ppm (Septoria nodorum) [%] | pest or weed control at 40 ppm (Alternaria solani) [%] | further results |
| --- | --- | --- | --- | --- | --- | --- | --- | --- | --- | --- | --- | --- | --- |
| COc1cc(OC)cc(-c2c(Cl)nnc(C)c2-c2ccc(Cl)cc2)c1 [Compound 1] | 0 | 0 | 0 | 0 | 0 | 0 |  |  |  |  |  |  |  |
| COc1ccc(-c2c(C)nnc(Cl)c2-c2cc(OC)cc(OC)c2)cc1 [Compound 2] | 62 | 26 | 95 | 74 | 0 | 58 |  |  |  |  |  |  |  |
| COc1cc(OC)cc(-c2c(Cl)nnc(C)c2-c2ccc(F)cc2F)c1 [Compound 3] | 97 | 79 | 91 | 97 | 0 | 31 |  |  |  |  |  |  |  |
| COc1cc(OC)cc(-c2c(Cl)nnc(C)c2-c2c(F)cccc2F)c1 [Compound 4, 3-chloro-4-(3,5-dimethoxyphenyl)-6-methyl-5-(2,6-difluorophenyl)pyridazine] |  |  |  |  |  |  |  |  |  |  |  |  | pest or weed control at 200 ppm (Septoria tritici): 98%; pest or weed control at 200 ppm (Erysiphe graminis): 95%; pest or weed control at 200 ppm (Botrytis cinerea): 95%; pest or weed control at 200 ppm [1]: 100%; pest or weed control at 200 ppm (Septoria nodorum): 0%; pest or weed control at 200 ppm (Alternaria solani): 97% |
| COc1cc(OC)cc(-c2cnnc(C)c2-c2c(F)cc(F)cc2F)c1 [Compound 6, 5-(3,5-dimethoxyphenyl)-3-methyl-4-(2,4,6-trifluorophenyl)pyridazine] |  |  |  |  |  |  |  |  |  |  |  |  | pest or weed control at 200 ppm (Septoria tritici): 93%; pest or weed control at 200 ppm (Erysiphe graminis): 100%; pest or weed control at 200 ppm (Botrytis cinerea): 97%; pest or weed control at 200 ppm [1]: 100%; pest or weed control at 200 ppm (Septoria nodorum): 96%; pest or weed control at 200 ppm (Alternaria solani): 100% |
| COc1cc(OC)cc(-c2cnnc(CCl)c2-c2c(F)cc(F)cc2F)c1 [Compound 7, 3-(chloromethyl)-5-(3,5-dimethoxyphenyl)-4-(2,4,6-trifluorophenyl)-pyridazine] |  |  |  |  |  |  |  |  |  |  |  |  | pest or weed control at 200 ppm (Septoria tritici): 96%; pest or weed control at 200 ppm (Erysiphe graminis): 99%; pest or weed control at 200 ppm (Botrytis cinerea): 91%; pest or weed control at 200 ppm [1]: 98%; pest or weed control at 200 ppm (Septoria nodorum): 94%; pest or weed control at 200 ppm (Alternaria solani): 26% |
| COc1cc(OC)cc(-c2c(C)nnc(Cl)c2-c2c(F)cc(F)cc2F)c1 [Compound 8, 3-chloro-5-(3,5-dimethoxyphenyl)-6-methyl-4-(2,4,6-trifluorophenyl)-pyridazine] |  |  |  |  |  |  | 99 | 99 | 100 | 100 | 100 | 100 |  |
| COc1cc(OC)cc(-c2c(C)nnc(C)c2-c2c(F)cc(F)cc2F)c1 [Compound 9, 4-(3,5-dimethoxyphenyl)-3,6-dimethyl-5-(2,4,6-trifluorophenyl)pyridazine] |  |  |  |  |  |  | 100 | 100 | 100 | 100 | 100 | 99 |  |
| COc1cc(OC)cc(-c2c(C)nnc(Cl)c2-c2c(F)cc(OC)cc2F)c1 [Compound 10, 3-chloro-4-(2,6-difluoro-4-methoxyphenyl)-5-(3,5-dimethoxyphenyl)-6-methylpyridazine] |  |  |  |  |  |  | 99 | 99 | 100 | 100 | 98 | 100 |  |
| COc1cc(OC)cc(-c2c(C)nnc(C)c2-c2c(F)cc(OC)cc2F)c1 [Compound 11, 4-(2,6-difluoro-4-methoxyphenyl)-5-(3,5-dimethoxyphenyl)-3,6-dimethylpyridazine] |  |  |  |  |  |  | 100 | 100 | 100 | 100 | 99 | 100 |  |
| COc1cc(OC)cc(-c2c(Cl)nnc(C)c2-c2c(F)cc(F)cc2F)c1 [Compound 12, 3-chloro-4-(3,5-dimethoxyphenyl)-6-methyl-5-(2,4,6-trifluorophenyl)pyridazine] |  |  |  |  |  |  | 99 | 100 | 99 | 100 | 99 | 100 |  |
| COc1cc(OC)cc(-c2c(Cl)nnc(C)c2-c2ccc(F)cc2)c1 [Compound 13] | 45 | 39 | 8 | 19 | 0 | 0 |  |  |  |  |  |  |  |
| COc1cc(OC)cc(-c2c(C)nnc(Cl)c2-c2c(F)ccc(F)c2F)c1 [Compound 15, 3-chloro-5-(3,5-dimethoxyphenyl)-6-methyl-4-(2,3,6-trifluorophenyl)pyridazine] |  |  |  |  |  |  |  |  |  |  |  |  | pest or weed control at 200 ppm (Septoria tritici): 99%; pest or weed control at 200 ppm (Erysiphe graminis): 99%; pest or weed control at 200 ppm (Botrytis cinerea): 100%; pest or weed control at 200 ppm [1]: 100%; pest or weed control at 200 ppm (Septoria nodorum): 84%; pest or weed control at 200 ppm (Alternaria solani): 100% |
| COc1cc(OC)cc(-c2c(C)nnc(C)c2-c2c(F)ccc(F)c2F)c1 [Compound 17, 4-(3,5-dimethoxyphenyl)-3,6-dimethyl-5-(2,3,6-trifluorophenyl)pyridazine] |  |  |  |  |  |  |  |  |  |  |  |  | pest or weed control at 200 ppm (Septoria tritici): 99%; pest or weed control at 200 ppm (Erysiphe graminis): 100%; pest or weed control at 200 ppm (Botrytis cinerea): 100%; pest or weed control at 200 ppm [1]: 100%; pest or weed control at 200 ppm (Septoria nodorum): 99%; pest or weed control at 200 ppm (Alternaria solani): 100% |
| COc1cc(OC)cc(-c2c(C(C)(C)O)nnc(C)c2-c2c(F)cc(F)cc2F)c1 [Compound 21, 4-(3,5-dimethoxyphenyl)-α,α,6-trimethyl-5-(2,4,6-trifluorophenyl)-3-pyridazinemethanol] |  |  |  |  |  |  | 98 | 100 | 100 | 100 | 40 | 99 |  |
| COc1cc(OC)c(Cl)c(-c2c(C)nnc(Cl)c2-c2c(F)cc(F)cc2F)c1 [Compound 23, 3-chloro-5-(2-chloro-3,5-dimethoxyphenyl)-6-methyl-4-(2,4,6-trifluoro-phenyl)pyridazine] |  |  |  |  |  |  | 100 | 100 | 100 | 100 | 100 | 100 |  |
| COc1cc(OC)c(Cl)c(-c2c(C)nnc(Cl)c2-c2c(F)cccc2F)c1 [Compound 28] | 100 | 100 | 100 | 100 | 78 | 100 |  |  |  |  |  |  |  |
| COc1cc(OC)cc(-c2c(C)nnc(C)c2-c2c(F)cccc2F)c1 [Compound 31] | 100 | 98 | 100 | 99 | 100 | 99 |  |  |  |  |  |  |  |
| COc1cc(OC)c(Cl)c(-c2c(C)nnc(C)c2-c2c(F)cccc2F)c1Cl [Compound 34] | 100 | 97 | 100 | 100 | 0 | 0 |  |  |  |  |  |  |  |
